This is an account of results in patent publication US10045983B2, “Heteroaryl pyridone and aza-pyrodine compounds” (Genentech, Inc., priority 2011, dated 2018).

A short description of the assay: CD69 Whole Blood Assay (CD69 Hu Blood FACS). The assay is classed as cell-based, human. The note with it: Lymphocyte, human whole blood, anti-IgM activated B lymphocytes, FACS, IC70. The source says: A CD69 Whole Blood Assay can be conducted on Formula I compounds to determine the ability of compounds to inhibit the production of CD69 by B lymphocytes in human whole blood activated by crosslinking surface IgM with goat F(ab′)2 anti-human IgM (Example 907). CD69 is a type II C-type lectin involved in lymphocyte migration and cytokine secretion. CD69 expression represents one of the earliest available indicators of leukocyte activation and its rapid induction occurs through transcriptional activation (Vazquez et al (2009) Jour. of Immunology Published Oct. 19, 2009, doi:10.4049/jimmunol.0900839). Concentration-dependent inhibition of antigen receptor stimulation by selective Btk inhibitors induces cell surface expression of the lymphocyte activation marker CD69 (Honigberg et al (2010) Proc. Natl. Acad. Sci. 107(29):13075-13080). Thus, CD69 inhibition by selective Btk inhibitors may be correlated with therapeutic efficacy of certain B-cell disorders.

Where [1] appears, read: Table 1, read-out: CD69 Hu Blood FACS IC70.

Where two headings read alike, the source gives them in different places.

For the molecule `COC[C@H](C)N1CCn2nc(Nc3cc(-c4ccnc(N5CCn6c(cc7c6CC(C)(C)C7)C5=O)c4CO)cn(C)c3=O)cc2C1` (single isomer, unassigned) [Example 303], the IC70 (commonly the concentration at which the effect reaches the 70% level) (Table 2 (unit inferred), read-out: CD69 Hu Blood FACS (IC70)) worked out at 0.0179 µM.

On to `CN1CCn2nc(Nc3cc(-c4ccnc(N5CCn6c(cc7c6[C@H]6CC[C@@H]7C6)C5=O)c4CO)cn(C)c3=O)cc2C1` (stereo in doubt) [Example 167, 2-(3-(hydroxymethyl)-4-(1-methyl-5-(5-methyl-4,5,6,7-tetrahydropyrazolo[1,5-a]pyrazin-2-ylamino)-6-oxo-1,6-dihydropyridin-3-yl)pyridin-2-yl)-3,4,6,7,8,9-hexahydro-6,9-methanopyrazino[1,2-a]indol-1(2H)-one], for which the IC70 under setting [1] is 0.119 µM.

`CN1CCn2nc(Nc3cc(-c4ccnc(N5CCn6c(cc7c6[C@@H]6CC[C@H]7C6)C5=O)c4CO)cn(C)c3=O)cc2C1` (stereo in doubt) [Example 170, 2-(3-(hydroxymethyl)-4-(1-methyl-5-(5-methyl-4,5,6,7-tetrahydropyrazolo[1,5-a]pyrazin-2-ylamino)-6-oxo-1,6-dihydropyridin-3-yl)pyridin-2-yl)-3,4,6,7,8,9-hexahydro-6,9-methanopyrazino[1,2-a]indol-1(2H)-one]: under setting [1], the IC70 stood at 0.335 µM.

On to `Cn1cc(-c2cncc(N3CCn4c(cc5c4CCCC5)C3=O)c2CO)cc(Nc2ccc(N3CCN(C4COC4)CC3)cn2)c1=O` [Example 101, 2-(4-(hydroxymethyl)-5-(1-methyl-5-(5-(4-(oxetan-3-yl)piperazin-1-yl)pyridin-2-ylamino)-6-oxo-1,6-dihydropyridin-3-yl)pyridin-3-yl)-3,4,6,7,8,9-hexahydropyrazino[1,2-a]indol-1(2H)-one], for which the IC70 under setting [1] came to 0.132 µM.

For `CN1CCN(c2ccc(Nc3cc(-c4cncc(N5CCn6c(cc7c6CCCC7)C5=O)c4CO)cn(C)c3=O)nc2)CC1` [Example 102, 2-(4-(Hydroxymethyl)-5-(1-methyl-5-(5-(4-methylpiperazin-1-yl)pyridin-2-ylamino)-6-oxo-1,6-dihydropyridin-3-yl)pyridin-3-yl)-3,4,6,7,8,9-hexahydropyrazino[1,2-a]indol-1(2H)-one], under setting [1], the IC70 turned out to be 0.132 µM.

With `Cn1cc(-c2ccnc(N3CCn4c(cc5c4CCCC5)C3=O)c2CO)cc(Nc2ccc(N3CCN(C4COC4)CC3)cn2)c1=O` [Example 103, 2-(3-(Hydroxymethyl)-4-(1-methyl-5-(5-(4-(oxetan-3-yl)piperazin-1-yl)pyridin-2-ylamino)-6-oxo-1,6-dihydropyridin-3-yl)pyridin-2-yl)-3,4,6,7,8,9-hexahydropyrazino[1,2-a]indol-1(2H)-one], the IC70 under setting [1] was 0.0776 µM.

With `Cn1cc(-c2nccc(N3CCn4c(cc5c4CCCC5)C3=O)c2CO)cc(Nc2ccc(N3CCN(C4COC4)CC3)cn2)c1=O` [Example 104, 2-(3-(Hydroxymethyl)-2-(1-methyl-5-(5-(4-(oxetan-3-yl)piperazin-1-yl)pyridin-2-ylamino)-6-oxo-1,6-dihydropyridin-3-yl)pyridin-4-yl)-3,4,6,7,8,9-hexahydropyrazino[1,2-a]indol-1(2H)-one], under setting [1], the IC70 was found to be 0.793 µM.

As for `Cn1cc(-c2cncc(N3CCc4c(sc5c4CCCC5)C3=O)c2CO)cc(Nc2ccc(N3CCN(C4COC4)CC3)cn2)c1=O` [Example 105, 4-Hydroxymethyl-3-[1-methyl-5-({5-[4-(oxetan-3-yl)piperazin-1-yl]pyridine-2-yl}amino)-6-oxo-1,6-dihydropyridin-3-yl]-5-{6-oxo-8-thia-5-azatricyclo-[7.4.0.0^2,7]trideca-1(9),2(7)-dien-5-yl}pyridine], under setting [1], the IC70 was determined as 0.0654 µM.

With `Cn1cc(-c2cncc(N3CCc4c(sc5c4CC(C)(C)C5)C3=O)c2CO)cc(Nc2ccc(N3CCN(C4COC4)CC3)cn2)c1=O` [Example 106], under setting [1], the IC70 was 0.0576 µM.

In the case of `Cn1cc(-c2cncc(N3CCn4c(cc5c4CC(C)(C)C5)C3=O)c2CO)cc(Nc2ccc(N3CCN(C4COC4)CC3)cn2)c1=O` [Example 107, 10-[4-[1-Methyl-5-({5-[4-(oxetan-3-yl)piperazin-1-yl]pyridine-2-yl}amino)-6-oxo-1,6-dihydropyridin-3-yl]-4-(hydroxymethyl)pyridin-3-yl]-4,4-dimethyl-1,10-diazatricyclo[6.4.0.0^2,6]dodeca-2(6),7-dien-9-one], the IC70 under setting [1] amounted to 0.0216 µM.

As for `Cn1cc(-c2ccnc(N3CCn4c(cc5c4CC(C)(C)C5)C3=O)c2CO)cc(Nc2ccc(N3CCN(C4COC4)CC3)cn2)c1=O` [Example 108, 2-(3-(Hydroxymethyl)-4-(1-methyl-5-(5-(4-(oxetan-3-yl)piperazin-1-yl)pyridin-2-ylamino)-6-oxo-1,6-dihydropyridin-3-yl)pyridin-2-yl)-4,4-dimethyl-1,10-diazatricyclo[6.4.0.0^2,6]dodeca-2(6),7-dien-9-one], the IC70 under setting [1] amounted to 0.0319 µM.

On to `Cn1cc(-c2ccnc(N3CCc4c(sc5c4CC(C)(C)C5)C3=O)c2CO)cc(Nc2ccc(N3CCN(C4COC4)CC3)cn2)c1=O` [Example 109, 2-(3-(Hydroxymethyl)-4-(1-methyl-5-(5-(4-(oxetan-3-yl)piperazin-1-yl)pyridin-2-ylamino)-6-oxo-1,6-dihydropyridin-3-yl)pyridin-2-yl)-4,4-dimethyl-7-thia-10-azatricyclo[6.4.0.0^2,6]dodeca-1(8),2(6)-dien-9-one], for which the IC70 under setting [1] amounted to 0.0501 µM.

In the case of `CN1CCN(c2cccc(Nc3cc(-c4ccnc(N5CCn6c(cc7c6CCCC7)C5=O)c4CO)cn(C)c3=O)n2)CC1` [Example 110, 2-(3-(Hydroxymethyl)-4-(1-methyl-5-(6-(4-methylpiperazin-1-yl)pyridine-2-ylamino)-6-oxo-1,6-dihydropyridin-3-yl)pyridin-2-yl)-3,4,6,7,8,9-hexahydropyrazino[1,2-a]indol-1(2H)-one], the IC70 under setting [1] was found to be 2.7 µM.

Turning to `Cn1cc(-c2ccnc(N3CCn4c(cc5c4CCCC5)C3=O)c2CO)cc(Nc2ccc(C(=O)N3CCOCC3)cn2)c1=O` [Example 111, 2-(3-(Hydroxymethyl)-4-(1-methyl-5-(5-(morpholine-4-carbonyl)pyridin-2-ylamino)-6-oxo-1,6-dihydropyridin-3-yl)pyridin-2-yl)-3,4,6,7,8,9-hexahydropyrazino[1,2-a]indol-1(2H)-one], the IC70 under setting [1] is 0.131 µM.

On to `Cn1cc(-c2cncc(N3CCc4c(cc5n4CCCC5)C3=O)c2CO)cc(Nc2ccc(N3CCN(C4COC4)CC3)cn2)c1=O` [Example 112, 2-(4-(Hydroxymethyl)-5-(1-methyl-5-(5-(4-(oxetan-3-yl)piperazin-1-yl)pyridin-2-ylamino)-6-oxo-1,6-dihydropyridin-3-yl)pyridin-3-yl)-3,4,6,7,8,9-hexahydropyrido[3,4-b]indolizin-1(2H)-one], for which the IC70 under setting [1] stood at 0.492 µM.

With `CN1CCn2nc(Nc3cc(-c4ccnc(N5CCn6c(cc7c6CCCC7)C5=O)c4CO)cn(C)c3=O)cc2C1` [Example 113, 2-(3-(Hydroxymethyl)-4-(1-methyl-5-(5-methyl-4,5,6,7-tetrahydropyrazolo[1,5-a]pyrazin-2-ylamino)-6-oxo-1,6-dihydropyridin-3-yl)pyridin-2-yl)-3,4,6,7,8,9-hexahydropyrazino[1,2-a]indol-1(2H)-one], the IC70 under setting [1] came out at 0.0625 µM.

On to `CN1CCN(C)[C@H](c2ccc(Nc3nc(-c4ccnc(N5CCn6c(cc7c6CCCC7)C5=O)c4CO)cn(C)c3=O)cc2)C1=O` [Example 114, (R)-2-(4-(6-(4-(1,4-dimethyl-3-oxopiperazin-2-yl)phenylamino)-4-methyl-5-oxo-4,5-dihydropyrazin-2-yl)-3-(hydroxymethyl)pyridin-2-yl)-3,4,6,7,8,9-hexahydropyrazino[1,2-a]indol-1(2H)-one], for which, under setting [1], the IC70 worked out at 0.0802 µM.

On to `Cc1cc(Nc2cc(-c3ccnc(N4CCn5c(cc6c5CCCC6)C4=O)c3CO)cn(C)c2=O)n[nH]1` [Example 115, 2-(3-(Hydroxymethyl)-4-(1-methyl-5-(5-methyl-1H-pyrazol-3-ylamino)-6-oxo-1,6-dihydropyridin-3-yl)pyridin-2-yl)-3,4,6,7,8,9-hexahydropyrazino[1,2-a]indol-1(2H)-one], for which, under setting [1], the IC70 was found to be 0.286 µM.

On to `Cn1cc(-c2cncc(-n3ncc4c5c(sc4c3=O)CCCC5)c2CO)cc(Nc2ccc(N3CCN(C4COC4)CC3)cn2)c1=O` [Example 116, 4-Hydroxymethyl-3-[1-methyl-5-({5-[4-(oxetan-3-yl)piperazin-1-yl]pyridine-2-yl}amino)-6-oxo-1,6-dihydropyridin-3-yl]-5-{6-oxo-8-thia-4,5-diazatricyclo[7.4.0.0^2,7]trideca-1(9),2(7),3-trien-5-yl}pyridine], for which the IC70 under setting [1] worked out at 0.377 µM.

In the case of `Cn1cc(-c2ccnc(N3CCn4c(cc5c4CCCC5)C3=O)c2CO)cc(Nc2ccc(S(C)(=O)=O)cn2)c1=O` [Example 117, 2-(3-(hydroxymethyl)-4-(1-methyl-5-(5-(methylsulfonyl)pyridin-2-ylamino)-6-oxo-1,6-dihydropyridin-3-yl)pyridin-2-yl)-3,4,6,7,8,9-hexahydro-pyrazino[1,2-a]indol-1(2H)-one], the IC70 under setting [1] turned out to be 0.396 µM.

Take `Cn1cc(-c2ccnc(N3CCn4c(cc5c4CCCC5)C3=O)c2CO)cc(Nc2cc(C3CC3)[nH]n2)c1=O` [Example 118, 2-(4-(5-(5-Cyclopropyl-1H-pyrazol-3-ylamino)-1-methyl-6-oxo-1,6-dihydropyridin-3-yl)-3-(hydroxymethyl)pyridin-2-yl)-3,4,6,7,8,9-hexahydropyrazino[1,2-a]indol-1(2H)-one]: the IC70 under setting [1] is 0.608 µM.
